The source of these data is patent US6642249B2, “Immunomodulating compounds” (Active Biotech AB, priority 2001, dated 2003).

pIC50: −log10 of the molar value.

This experiment deals with T1, CD28-CD80 interactions (Homo sapiens, UniProt P33681).
T1 sequence (P33681 35-242 limits assumed): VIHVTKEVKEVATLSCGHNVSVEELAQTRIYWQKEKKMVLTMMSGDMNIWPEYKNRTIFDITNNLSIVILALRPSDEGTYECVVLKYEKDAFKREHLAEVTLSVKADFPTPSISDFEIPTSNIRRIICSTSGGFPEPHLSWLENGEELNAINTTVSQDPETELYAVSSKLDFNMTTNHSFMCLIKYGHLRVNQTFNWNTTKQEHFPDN
Briefly: Time resolved fluorescence competition assay: CD28-CD80 interactions. Format: binding. The following applies: inhibition of CD28-mFc (5 nM) / CD80FabC215 (10 nM) interaction; representative results. On the procedure:
Time resolved fluorescence competition assay protocol: CD28-CD80 interactions.
50 mM Tris-HCl, 150 mM NaCl, 0.05% Tween 20, pH 7.8, containing 0.1% BSA (w/v), added prior to use.
The substances to be tested for inhibitory effects were serially diluted from stock concentrations of 20 mM (DMSO) in assay buffer to preparation concentrations of 200, 100, 50 and 25 μM. The final concentration in the wells was 100, 50, 25 and 12.5 μM, respectively. The maximum final DMSO concentration tolerated in the assay was 0.5%. Where appropriate, the dilution series was adjusted and extended to measure the IC50.
CTLA4-hIg(Fc) was diluted to working concentrations of 20 nM and 2 nM, resulting in final concentrations of 10 nM and 1 nM in the well. At these concentrations (10 nM and 1 nM) approximately 90% and 30% inhibition levels were observed.
Preparation of Reagent Mixture
To a tube containing 1.1 ml assay buffer, the following reagents were added:
900 μl of the above reagent mixture was transferred to a new tube. CD80FabC215 was added at a preparation concentration of 20 nM, (i.e. 4.3 μl from 0.4 mg/ml stock). The final concentration in the well was 10 nM.
To the remaining 200 μl reagent mixture C215Fab was added as control for non-specific binding (NSB). 0.5 μl from a 0.36 mg/ml stock gave a preparation concentration of 20 nM and a final concentration in the well of 10 nM.
To a black, half area, 96-well microtiter plate, the C215Fab containing reagent mixture was transferred to column 12, row E-H (4 wells), 10 μl/well with a single channel electronic pipette. 10 μl/well of the CD80FabC215 containing reagent mixture was transferred with a single channel electronic pipette to all other wells on the plate
B0: Assay buffer, 10 μl/well was pipetted to the CD80FabC215 containing wells in column 12, row A-D (4 wells).
NSB: Assay buffer, 10 μl/well was pipetted to the C215Fab containing wells in column 12, row E-H (4 wells).
CTLA4-hIg(Fc), 10 μl/well of 20 and 2 nM (final conc 10 and 1 nM) was pipetted in duplicate into well 11 E-F and 11 G-H.
Sample dilution series: 10 μl/well in duplicate to the remaining wells.
The plate was covered with a plastic lid and incubated in the dark: Initially for 1 h on a shaker platform at room temperature (RTS), stationary at +4° C. overnight, and finally 1 h RTS before reading.
The plate was measured on a Victor 1420 Multilabel Counter using the LANCE protocol (#2) measuring emission at dual wavelengths, from both APC (665 nm) and Europium (615 nm). First measurement: Excitation 340 nm, emission 665 nm, delay 50 μs, window time 200 μs. Second measurement: Excitation 340 nm, emission 615 nm, delay 50 μs, window time 200 μs.
The fluorescence signal ratio 1000* 665 nm/615 nm, from which the percentage inhibition was calculated, was determined. A logit b plot (Logit b=LN (% Bound/(100% −% Bound, plotted against Log conc) was performed from which IC50 was measured.
The pIC50 is the IC50 on a negative log10 scale, so that one unit is a factor of ten. `O=C(O)c1ccc(-n2nc3c4ccccc4[nH]cc-3c2=O)cc1` [4-(3-oxo-3,5-dihydro-pyrazolo[4,3-c]quinolin-2-yl)-benzoic Acid] gave a pIC50 of 6.32.

For `O=C(O)c1ccc(-n2nc3c4ccccc4scc-3c2=O)cc1` [4-(3-Oxo-3H-thiochromeno[4,3-c]pyrazol-2-yl)benzoic Acid], the pIC50 is 4.87.

As for `O=C(O)c1cccc(-n2nc3c4ccccc4[nH]cc-3c2=O)c1` [3-(3-Oxo-3,5-dihydro-pyrazolo[4,3-c]quinolin-2-yl)-benzoic Acid], the pIC50 was 6.06.

On to `O=C(O)CNC(=O)c1ccc(-n2nc3c4ccccc4[nH]cc-3c2=O)cc1` [2-[4-(3-Oxo-3,5-dihydro-pyrazolo[4,3-c]quinolin-2-yl)-benzoylamino]-2-acetic Acid], for which the pIC50 was 5.41.

Molecule `O=C(O)c1ccc(-n2nc3c4ccccc4[nH]cc-3c2=O)cc1Cl` [2-Chloro-4-(3-oxo-3,5-dihydro-pyrazolo[4,3-c]quinolin-2-yl)-benzoic Acid] gave a pIC50 of 6.57.

On to `O=C(O)CCc1ccc(-n2nc3c4ccccc4[nH]cc-3c2=O)cc1` [[4-(3-Oxo-3,5-dihydro-pyrazolo[4,3-c]quinolin-2-yl)-phenyl]-propionic Acid], for which the pIC50 was 5.80.

With `O=C(O)CCC(=O)Nc1ccc(-n2nc3c4ccccc4[nH]cc-3c2=O)cc1` [N-[4-(3-Oxo-3,5-dihydro-pyrazolo[4,3-c]quinolin-2-yl)-phenyl]-succinamic Acid], the pIC50 was 6.22.
